Source: patent publication US20130150354A1, “NEW SELECTIVE CCR2 ANTAGONISTS” (BOEHRINGER INGELHEIM INTERNATIONAL GMBH, priority 2011, published 2013)

Columns and labels:
human CCR5 = molecular target: T1, human CCR5 (Homo sapiens, UniProt P51681); experiment: CCR5 receptor membrane binding assay (CHO (Gα16) human CCR5 membranes, [125I]RANTES, SPA beads); conditions: 6 h, read-out: hKi [nM] (CCR5)
T1 construct: expressed in transfected cells; host or cells: CHO cells co-expressing Gα16, grown under puromycin and zeocin selection; membrane preparation
Experimental: The above exemplary substances have been tested for binding to CCR5 using a binding assay as outlined herein below:
CHO, (Gα16) human CCR5 cells were cultured under standardized conditions at 37° C. and 5% CO2 in a humidified incubator. CHO (Gα16) human CCR5 cells were cultivated in Ham's F12 (Invitrogen; #31765068) supplemented with 10 µg/ml Puromycin (Invitrogen; #A11139-03), 200 µg/ml Zeocin (Invitrogen; #45-0003) and 10% FCS (Gibco; #10500-064).
Membranes were prepared from CHO (Gα16) human CCR5 cells. Cells were cultured on […] plates (Nunc; #166508) 2-3 days before membrane preparation (usually 80-100 plates to obtain 80 mg protein).
Cells were scraped off the plates with a big scraper and washed with 2×5 ml ice cold Phosphate Buffer Saline (PBS; Invitrogen; #14040-174). Cell suspension was collected in a glass bottle (on ice). Cell suspension was harvested at 1400 rpm and 4° C. for 10 min and washed in PBS. Cell pellet was resuspended in 40 ml PBS with protease inhibitor mix ‘complete’ (Roche; #11873580001; 1 tablet/50 ml).
For gentle cell disruption the membrane preparation was performed by using a homogenizer (potter). Cells were homogenized for 5-10 min.
Membranes were centrifuged at 1000 rpm and 4° C. for 5 min. Supernatant (=membrane) was harvested in a new falcon tube and remaining cell pellet homogenized again for 5-10 min with PBS with protease inhibitor mix and centrifuged. Collected supernatant was centrifuged at 40000 rpm and 4° C. for 30 min to sediment the cell membranes.
The membranes were resuspended in 25 mM HEPES, 25 mM MgCl2, 1 mM CaCl2, 10% Glycerine for storage in aliquots at −80° C. Membranes were diluted to a concentration of 5 mg/ml (Bradford Assay).
[^125I]RANTES, Stock: 1825 Ci/mmol, 25 μCi (Bio Trend #A3-AI-676) was solved in 1000 μl assay buffer (100 mM NaCl; 10 mM MgCl2; 50 mM Tris-HCl; 1 mM EDTA; 0.1% BSA, pH 7.6), stored at −20° C.
CHO (Gα16) human CCR5 membrane were solved on ice and adjusted with assay buffer to a concentration of 2.5 μg/15 μl.
Amersham Biosciences PVT-WGA Beads (GE Healthcare; #RPNQ0001) were adjusted with assay buffer to a concentration of 8 mg/ml. For preparation of the membrane-bead-suspension, membranes and beads were incubated for 30 min at RT under rotation with a ratio of 1:2.
Test compounds dissolved in 100% DMSO to a concentration of 10 mM and are further diluted with 100% DMSO to 1 mM. All additional compound dilutions were obtained with assay buffer, final 1% DMSO. 7 μl compound dilution, 45 μl membrane-bead-suspension and 10 μl [^125I]RANTES (ca. 20000 cpm/10 μl) were incubated at RT. Bound radioactivity was determined by scintillation counter after 6 h. Determination of affinity of test compounds (dissociation constant Ki) is calculated by iterative fitting of experimental data using the “easy sys” program, which is based on law of mass action (Schittkowski K. (1994), Numerische Mathematik, Vol. 68, 129-142).

CCR2 = molecular target: T2, CCR2 (Homo sapiens, UniProt P41597); experiment: CCR2 receptor membrane binding assay (THP-1 membranes, 125I-MCP-1, SPA beads); conditions: THP-1 cell membranes, 125I-MCP-1, 8 h; read-out: hKi [nM] (CCR2)
T2 construct: Membranes were prepared from THP-1 cells; endogenous in cells; host or cells: THP-1 (human acute monocytic leukaemia cells), membrane preparation
T2 sequence (P41597 1-360 isoform P41597-2): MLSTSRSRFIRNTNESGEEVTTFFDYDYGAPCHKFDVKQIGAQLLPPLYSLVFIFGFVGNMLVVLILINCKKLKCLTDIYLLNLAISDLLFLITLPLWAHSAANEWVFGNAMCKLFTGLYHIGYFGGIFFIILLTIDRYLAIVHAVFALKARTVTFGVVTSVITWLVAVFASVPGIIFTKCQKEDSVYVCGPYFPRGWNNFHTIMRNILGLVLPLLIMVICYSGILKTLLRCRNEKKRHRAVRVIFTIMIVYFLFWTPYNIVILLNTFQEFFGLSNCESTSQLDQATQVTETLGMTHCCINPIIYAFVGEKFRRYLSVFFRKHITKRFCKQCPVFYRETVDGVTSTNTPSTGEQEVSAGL
Experimental: The above exemplary substances have been tested for binding to CCR2 using a binding assay as outlined herein below:
THP-1 cells (human acute monocytic leukaemia cells) were cultured under standardized conditions at 37° C. and 5% CO2 in a humidified incubator. THP-1 cells were cultivated in RPMI 1640 medium (Gibco 21875) containing 1% MEM-NEAA (Gibso 11140) 2 mM L-glutamine, 1.5 g/L sodium bicarbonate, 4.5 g/L glucose, 10 mM HEPES and 1.0 mM sodium pyruvate, 90%; 10% fetal calf serum (FCS Gibco 10500-064).
Membranes were prepared from THP-1 cells. THP-1 cells were centrifuged at 300×g at 4° C. for 10 min. The cell pellet was resuspendet in Phosphate Buffer Saline (PBS, including 10 μM Pefabloc and a protease inhibitor mix ‘complete’, Boehringer Mannheim (1 tablet/50 ml)), to a concentration of […]. The membrane preparation was performed by disrupting the cells by nitrogen […] (at 50 bar, for 1 h) in a “Nitrogen Bombe” (Parr Instrument). Cell debris was removed by centrifugation (800×g at 4° C., 1 min). The supernatant was centrifuged at 80000×g, 4° C. for 30 min to sediment the cell membranes. Usually 50 mg of protein (Bradford assay) were yielded from 1×10E9 cells. The membranes were resuspendet in 25 mM HEPES, 25 mM MgCl2, 1 mM CaCl2, 10% Glycerine for storage in aliquots at −80° C. in 25 mM HEPES, 25 mM MgCl2, 1 mM CaCl2, 10% Glycerine and stored at −80° C.
Perkin Elmer NEX 332 Jod^125 MCP-1, Stock: 2200 Ci/mmol solved in 2000 μl assay buffer, stored at −20° C. THP-1 membrane were adjusted with 25 mM HEPES, pH 7.2; 5 mM MgCl2; 0.5 mM CaCl2; 0.2% BSA assay buffer to a concentration of 2.5 μg/15 μl. Amersham Biosciences PVT-WGA Beads (RPNQ0001) were adjusted with assay buffer to a concentration of 0.24 mg/30 μl. For preparation of the membrane-bead-suspension membranes and beads were incubated for 30 min at RT under rotation (60 rpm) with a ratio of 1:2. Test compounds dissolved in 100% DMSO to a concentration of 10 mM and are further diluted with 100% DMSO to 1 mM. All additional compound dilutions were obtained with assay buffer, final 1% DMSO. Compounds, membrane-bead-suspension and [^125]MCP-1 (ca. 25000 cpm/10 μl) were incubated. Bound radioactivity was determined by scintillation counter after 8 h. Determination of affinity of test compounds (dissociation constant hKi) is calculated by iterative fitting of experimental data using the “easy sys” program, which is based on law of mass action (Schittkowski K. (1994), Numerische Mathematik, Vol. 68, 129-142).

T1 sequence (P51681 whole entry): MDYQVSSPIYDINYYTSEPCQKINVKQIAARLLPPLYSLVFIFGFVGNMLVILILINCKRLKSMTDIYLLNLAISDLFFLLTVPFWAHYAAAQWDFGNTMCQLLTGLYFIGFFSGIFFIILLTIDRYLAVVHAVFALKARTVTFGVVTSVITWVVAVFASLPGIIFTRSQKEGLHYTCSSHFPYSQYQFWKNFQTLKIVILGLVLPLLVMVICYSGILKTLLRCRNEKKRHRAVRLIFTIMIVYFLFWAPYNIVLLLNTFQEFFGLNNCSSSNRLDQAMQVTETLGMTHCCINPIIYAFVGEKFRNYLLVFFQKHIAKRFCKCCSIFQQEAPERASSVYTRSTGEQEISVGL

Ki (human CCR5) | Ki (CCR2) | Compound
220 nM | 1 nM | Cc1c(NC[C@H]2CCC[C@@H](c3ccc(C(F)(F)F)cc3)O2)ncnc1C(=O)N1CCC(N2CC3CN(S(C)(=O)=O)CC3C2)CC1 (some centres unmarked) [Example 12]
2270 nM | 7 nM | Cc1c(C(=O)N2CCC(N3CC4CN(S(C)(=O)=O)CC4C3)CC2)ncnc1N1CCc2ccc(C(F)(F)F)cc2C1 (centres unmarked) [Example 13]
330 nM | 3 nM | Cc1ccc([C@@H]2CCC[C@H](CNc3ncnc(C(=O)N4CCC(N5CC6CN(S(C)(=O)=O)CC6C5)CC4)c3C)O2)cc1 (some centres unmarked) [Example 14]
400 nM | 3 nM | Cc1c(Nc2ccc(Cl)c(Cl)c2)ncnc1C(=O)N1CCC(N2CC3CN(S(C)(=O)=O)CC3C2)CC1 (centres unmarked) [Example 15]
880 nM | 40 nM | Cc1ccc([C@@H]2CCC[C@H](CNc3ncnc(C(=O)N4CCC(N5CC6COCC6C5)CC4)c3C)O2)cc1 (some centres unmarked) [Example 16]
320 nM | 16 nM | Cc1c(NC[C@H]2CCC[C@@H](c3ccc(C(F)(F)F)cc3)O2)ncnc1C(=O)N1CCC(N2CC3COCC3C2)CC1 (some centres unmarked) [Example 17]
930 nM | 24 nM | Cc1c(Nc2ccc(Cl)c(Cl)c2)ncnc1C(=O)N1CCC(N2CC3COCC3C2)CC1 (centres unmarked) [Example 18]
4030 nM | 58 nM | COc1nc(NCc2ccc(C(C)(C)C)cc2)c(C)c(C(=O)N2CCC(N3CC4COCC4C3)CC2)n1 (centres unmarked) [Example 19]
2610 nM | 69 nM | Cc1c(NCc2ccc(C(C)(C)C)cc2)nc(C(F)(F)F)nc1C(=O)N1CCC(N2CC3COCC3C2)CC1 (centres unmarked) [Example 20]
200 nM | 3 nM | Cc1c(NC[C@H]2CCC[C@@H](c3ccc(C(F)(F)F)cc3)O2)ncnc1C(=O)N1CCC(N2CCOC3COCCC32)CC1 (some centres unmarked) [Example 21]
1170 nM | 15 nM | Cc1ccc([C@@H]2CCC[C@H](CNc3ncnc(C(=O)N4CCC(N5CCOC6COCCC65)CC4)c3C)O2)cc1 (some centres unmarked) [Example 22]
5820 nM | 17 nM | Cc1c(C(=O)N2CCC(N3CCOC4COCCC43)CC2)ncnc1N1CCc2ccc(C(F)(F)F)cc2C1 (centres unmarked) [Example 23]
670 nM | 2 nM | Cc1c(Nc2ccc(Cl)c(Cl)c2)ncnc1C(=O)N1CCC(N2CCO[C@H]3COCC[C@H]32)CC1 [Example 24]
470 nM | 3 nM | Cc1nc(Nc2ccc(Cl)c(Cl)c2)c(C)c(C(=O)N2CCC(N3CCO[C@H]4COCC[C@H]43)CC2)n1 [Example 25]
430 nM | 0.8 nM | Cc1c(Nc2ccc(Cl)c(Cl)c2)nc(C2CC2)nc1C(=O)N1CCC(N2CCO[C@H]3COCC[C@H]32)CC1 [Example 26]
1000 nM | 3 nM | COc1nc(Nc2cccc(C(F)(F)F)c2)c(C)c(C(=O)N2CCC(N3CCO[C@H]4COCC[C@H]43)CC2)n1 [Example 27]
390 nM | 0.9 nM | COc1nc(Nc2ccc(Cl)c(Cl)c2)c(C)c(C(=O)N2CCC(N3CCO[C@H]4COCC[C@H]43)CC2)n1 [Example 28]
960 nM | 1 nM | Cc1c(Nc2cccc(C(F)(F)F)c2)nc(C2CC2)nc1C(=O)N1CCC(N2CCO[C@H]3COCC[C@H]32)CC1 [Example 29]
1000 nM | 9 nM | Cc1nc(Nc2cccc(C(F)(F)F)c2)c(C)c(C(=O)N2CCC(N3CCO[C@H]4COCC[C@H]43)CC2)n1 [Example 30]
7010 nM | 67 nM | Cc1ccc2c(c1)CN(c1nc(C)nc(C(=O)N3CCC(N4CCO[C@H]5COCC[C@H]54)CC3)c1C)CC2 [Example 31]
5310 nM | 80 nM | Cc1c(C(=O)N2CCC(N3CC4COCC4C3)CC2)ncnc1N1CCc2ccc(C(F)(F)F)cc2C1 (centres unmarked) [Example 32]
1820 nM | 11 nM | Cc1c(NCc2ccc(C(C)(C)C)cc2)ncnc1C(=O)N1CCC(N2CC3CN(S(C)(=O)=O)CC3C2)CC1 (centres unmarked) [Example 42]
43 nM | 1 nM | Cc1c(NC[C@H]2CCC[C@@H](c3ccccc3)C2)ncnc1C(=O)N1CCC(N2CC3CN(S(C)(=O)=O)CC3C2)CC1 (some centres unmarked) [Example 43]
65 nM | 7 nM | Cc1c(NC[C@H]2CCC[C@@H](c3ccccc3)C2)ncnc1C(=O)N1CCC(N2CC3COCC3C2)CC1 (some centres unmarked) [Example 44]
4110 nM | 36 nM | Cc1c(NCc2ccc(C(C)(C)C)cc2)ncnc1C(=O)N1CCC(N2CC3COCC3C2)CC1 (centres unmarked) [Example 45]
